Patent US20170152258A9, “Substituted Pyridopyrazines as Syk Inhibitors” (HUTCHISON MEDIPHARMA LIMITED, priority 2012, published 2017)

Columns and labels:
RBL-2H3 cells = assay: IgE-induced Beta-hexosaminidase secretion in RBL-2H3 cells; format: cell-based; conditions: DNP-BSA stimulation
In short: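 RBL-2H3 cells sensitized overnight with 0.5 ug/ml SPE-7 IgE, washed, preincubated with compound 20 min at 37° C, then stimulated with DNP-BSA (150 ng/mL stock) for 45 min. Released β-hexosaminidase measured on supernatant with 1 mM 4-nitrophenyl N-acetyl-β-D-glucosaminide, pH 4.5, 1.5 hr at 37° C; absorbance 405 nm after carbonate quench.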

Syk kinase = Syk kinase (Homo sapiens, UniProt P43405); assay: SYK Enzymatic Assay (Z-LYTE Tyr 2 peptide); format: biochemical; conditions: 8 concentrations 1 μM down to 0.0003 μM
In short: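 Z-LYTE format using Tyr 2 peptide. After the 1 h room-temperature kinase reaction, development reagent was added for 1 h, then stop reagent. Fluorescence was read at 445 and 520 nm. Compounds were tested at 8 concentrations, 1 μM down to 0.0003 μM (1:3 dilutions).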

[1] = Rattus norvegicus, RBL-2H3, IgE-induced Beta-hexosaminidase secretion
[2] = IgE-induced Beta-hexosaminidase secretion

SMILES	IC50 (RBL-2H3 cells; [1])	IC50 (Syk kinase)	IC50 (RBL-2H3 cells; [2])	IC50 (RBL-2H3 cells; Rattus norvegicus, IgE-induced Beta-hexosaminidase secretion)
CCN1CCN(c2ccc(-c3cc4nccnc4c(OC[C@@H]4CN(C(=O)C(F)F)CCO4)n3)cc2)CC1 [Compound 17]	56 nM	32 nM		
CN(C)c1ccc(-c2cc3nccnc3c(OC[C@@H]3CN(S(=O)(=O)CCN4CC[C@H](O)C4)CCO3)n2)cc1 [Compound 103]	325 nM	32 nM		
CN(C)CCS(=O)(=O)N1CCO[C@H](COc2nc(-c3ccc(N4CCOCC4)cc3)cc3nccnc23)C1 [Compound 65]	181 nM	53 nM		
CC(C)S(=O)(=O)N1CCO[C@H](COc2nc(-c3ccc(N(C)C)cc3)cc3nccnc23)C1 [Compound 89]	207 nM	96 nM		
CN1CCN(c2ccc(-c3cc4nccnc4c(OC[C@@H]4CN(C(=O)C(F)F)CCO4)n3)cc2)CC1 [Compound 16]	33 nM	36 nM		
COCCN1CCC(c2ccc(-c3cc4nccnc4c(OC[C@@H]4CN(S(C)(=O)=O)CCO4)n3)cc2)CC1 [Compound 59]	117 nM	30 nM		
CC(=O)N1CCO[C@H](COc2nc(-c3ccc(N(C)C)c(C)c3)cc3nccnc23)C1 [Compound 158]	32 nM	30 nM		
CN(C)c1ccc(-c2cc3nccnc3c(OC[C@@H]3CN(C(=O)Cc4c[nH]cn4)CCO3)n2)cc1 [Compound 84]	316 nM	81 nM		
CS(=O)(=O)N1CCO[C@H](COc2nc(-c3ccc(N4CCCCC4)cc3)cc3nccnc23)C1 [Compound 21]	88 nM	30 nM		
CS(=O)(=O)N1CCO[C@H](COc2nc(-c3ccc4c(c3)OCCO4)cc3nccnc23)C1 [Compound 109]	131 nM	97 nM		
CC(=O)N1CCO[C@H](COc2nc(-c3ccc(N(C)C)c(F)c3)cc3nccnc23)C1 [Compound 139]	119 nM	95 nM	194 nM	
Cn1ncc2cc(-c3cc4nccnc4c(OC[C@@H]4CN(S(C)(=O)=O)CCO4)n3)ccc21 [Compound 105]	77 nM	39 nM		
CNC(=O)N1CCO[C@H](COc2nc(-c3ccc(C(C)C)cc3)cc3nccnc23)C1 [Compound 176]	67 nM	59 nM		
CN1CCN(c2ccc(-c3cc4nccnc4c(OC[C@@H]4CN(S(N)(=O)=O)CCO4)n3)cc2)CC1 [Compound 64]	487 nM	20 nM		
CC(C)(O)C1CCN(c2ccc(-c3cc4nccnc4c(OC[C@@H]4CN(S(C)(=O)=O)CCO4)n3)cc2)CC1 [Compound 22]	73 nM	16 nM		
CNc1ccc(-c2cc3nccnc3c(O[C@@H]3CCOC3)n2)cc1 [Compound 133]	24 nM	45 nM		
CS(=O)(=O)N1CCO[C@H](COc2nc(-c3ccc(C4CCN(CCO)CC4)cc3)cc3nccnc23)C1 [Compound 58, (S)-2-(4-(4-(5-((4-(methylsulfonyl)morpholin-2-yl)methoxy)pyrido[3,4-b]pyrazin-7-yl)phenyl)piperidin-1-yl)ethanol]	990 nM	31 nM		
CN(C)c1ccc(-c2cc3nccnc3c(OC[C@@H]3CN(C(=O)C(F)F)CCO3)n2)cc1 [Compound 100]	68 nM	31 nM		

SMILES	IC50 (RBL-2H3 cells; [1])	IC50 (Syk kinase)	IC50 (RBL-2H3 cells; [2])	IC50 (RBL-2H3 cells; Rattus norvegicus, IgE-induced Beta-hexosaminidase secretion)
CN(C)c1ccc(-c2cc3nccnc3c(OC[C@@H]3CN(C(=O)[C@@H]4CCOC4)CCO3)n2)cc1 [Compound 72]	188 nM	109 nM		
CS(=O)(=O)N1CCN(c2ccc(-c3cc4nccnc4c(OC[C@@H]4CN(S(C)(=O)=O)CCO4)n3)cc2)CC1 [Compound 26]	113 nM	18 nM		
CC(=O)N1CCN(c2ccc(-c3cc4nccnc4c(O[C@@H]4CCCOC4)n3)cc2)CC1 [Compound 177]	79 nM	91 nM		
CC(=O)N1CCO[C@H](COc2nc(-c3ccc(N4CCOCC4)cc3)cc3nccnc23)C1 [Compound 24]	127 nM	76 nM		
CN(C)c1ccc(-c2cc3nccnc3c(OC[C@@H]3CN(C(=O)N4CCC4)CCO3)n2)cc1 [Compound 199, (S)-azetidin-1-yl(2-(((7-(4-(dimethylamino)phenyl)pyrido[3,4-b]pyrazin-5-yl)oxy)methyl)morpholino)methanone]	211 nM	88 nM		
O=C(C(F)F)N1CCO[C@H](COc2nc(-c3ccc(N4CCNCC4)cc3)cc3nccnc23)C1 [Compound 6, (S)-2,2-difluoro-1-(2-((7-(4-(piperazin-1-yl)phenyl)pyrido[4,3-b]pyrazin-5-yloxy)methyl)morpholino)ethanone]		34 nM		260 nM
CS(=O)(=O)N1CCO[C@H](COc2nc(-c3ccc(N4CCNCC4)cc3)cc3nccnc23)C1 [Compound 14]	631 nM	25 nM		
CNS(=O)(=O)N1CCO[C@H](COc2nc(-c3ccc(N4CCOCC4)cc3)cc3nccnc23)C1 [Compound 55]	144 nM	65 nM		
CC(=O)N1CCC(c2ccc(-c3cc4nccnc4c(OC[C@@H]4CN(C(C)=O)CCO4)n3)cc2)CC1 [Compound 54]	257 nM	73 nM		
CC(=O)N1CCC(c2ccc(-c3cc4nccnc4c(OC[C@@H]4CN(S(C)(=O)=O)CCO4)n3)cc2)CC1 [Compound 33]	64 nM	27 nM		
CC(=O)N1CCN(c2ccc(-c3cc4nccnc4c(O[C@@H]4CCOC4)n3)cc2)CC1 [Compound 152]	48 nM	33 nM		
CC(=O)N1CCO[C@H](COc2nc(-c3ccc(N4CCN(C)CC4)c(C)c3)cc3nccnc23)C1 [Compound 186]	114 nM	81 nM		
Cc1cc(-c2cc3nccnc3c(OC[C@@H]3CN(C(=O)[C@@H](C)O)CCO3)n2)ccc1N(C)C [Compound 200]	133 nM	51 nM		
Cc1cc(-c2cc3nccnc3c(O[C@@H]3CCOC3)n2)ccc1N1CCOCC1 [Compound 192]	49 nM	30 nM		
CN(C)c1ccc(-c2cc3nccnc3c(OC[C@@H]3CN(C(=O)C(C)(F)F)CCO3)n2)cc1 [Compound 172]	55 nM	50 nM		
CNC(=O)CS(=O)(=O)N1CCO[C@H](COc2nc(-c3ccc(N(C)C)cc3)cc3nccnc23)C1 [Compound 99]	106 nM	23 nM		
c1cnc2c(O[C@@H]3CCOC3)nc(-c3ccc(N4CCOCC4)cc3)cc2n1 [Compound 149]	60 nM	30 nM		
CCS(=O)(=O)N1CCN(c2ccc(-c3cc4nccnc4c(OC[C@@H]4CN(C(C)=O)CCO4)n3)cc2)CC1 [Compound 25]	155 nM	67 nM		

Further lines, with some results ahead:

IC50 (RBL-2H3 cells; [1])	IC50 (Syk kinase)	IC50 (RBL-2H3 cells; [2])	SMILES	IC50 (RBL-2H3 cells; Rattus norvegicus, IgE-induced Beta-hexosaminidase secretion)
135 nM	24 nM		NS(=O)(=O)N1CCO[C@H](COc2nc(-c3ccc(C4CCOCC4)cc3)cc3nccnc23)C1 [Compound 260]	
400 nM	23 nM		CC(C)(O)c1ccc(-c2cc3nccnc3c(OC[C@@H]3CN(S(N)(=O)=O)CCO3)n2)cc1 [Compound 263]	
30 nM	17 nM		CC(C)(C#N)c1ccc(-c2cc3nccnc3c(OC[C@@H]3CN(S(C)(=O)=O)CCO3)n2)cc1 [Compound 212]	
218 nM	51 nM	132 nM	N#CC1(c2ccc(-c3cc4nccnc4c(OC[C@@H]4CN(S(N)(=O)=O)CCO4)n3)cc2)CCC1 [Compound 294]	
620 nM	35 nM		NC(=O)N1CCO[C@H](COc2nc(-c3ccc(C4(O)CCC4)cc3)cc3nccnc23)C1 [Compound 311]	
83 nM	75 nM		CNS(=O)(=O)N1CCOC(COc2nc(-c3ccc(C(C)(C)C#N)cc3)cc3nccnc23)C1 (stereo not shown) [Compound 251]	
57 nM	17 nM		CN1CCCc2cc(-c3cc4nccnc4c(OC[C@@H]4CN(C(N)=O)CCO4)n3)ccc21 [Compound 209]	
32 nM	30 nM		Cc1cc(-c2cc3nccnc3c(O[C@@H]3CCOC3)n2)ccc1N1CCN(S(C)(=O)=O)CC1 [Compound 210]	
70 nM	37 nM		OCCN1CCC(c2ccc(-c3cc4nccnc4c(O[C@@H]4CCOC4)n3)cc2)CC1 [Compound 227]	
127 nM	14 nM		CC(=O)N1CC(C)(c2ccc(-c3cc4nccnc4c(OC[C@@H]4CN(S(C)(=O)=O)CCO4)n3)cc2)C1 [Compound 321]	
69 nM	86 nM		CNS(=O)(=O)N1CCO[C@H](COc2nc(-c3ccc(OC)c(OC)c3)cc3nccnc23)C1 [Compound 220]	
59 nM	40 nM		CS(=O)(=O)N1CCO[C@H](COc2nc(-c3ccc(C4(C#N)CC4)cc3)cc3nccnc23)C1 [Compound 274]	
40 nM	19 nM		CN1CCc2cc(-c3cc4nccnc4c(OC[C@@H]4CN(S(N)(=O)=O)CCO4)n3)ccc21 [Compound 215]	
297 nM	54 nM		CC(=O)N(C)Cc1ccc(-c2cc3nccnc3c(OC[C@@H]3CN(S(C)(=O)=O)CCO3)n2)cc1 [Compound 259]	
87 nM	42 nM		CC(C)(C(N)=O)c1ccc(-c2cc3nccnc3c(OC[C@@H]3CN(S(C)(=O)=O)CCO3)n2)cc1 [Compound 231]	
78 nM	58 nM		CNS(=O)(=O)N1CCO[C@H](COc2nc(-c3ccc(N(C)C)cc3)cc3nccnc23)C1 [Compound 211]	
112 nM	28 nM		CC(C)(C#N)c1ccc(-c2cc3nccnc3c(OCC3CN(S(N)(=O)=O)CCO3)n2)cc1 (stereo not shown) [Compound 250]	
19 nM	27 nM		CC(=O)N1CCN(c2ccc(-c3cc4nccnc4c(O[C@@H]4CCOC4)n3)cc2C)CC1 [Compound 205]	
94 nM	33 nM		CC1(c2ccc(-c3cc4nccnc4c(OC[C@@H]4CN(S(C)(=O)=O)CCO4)n3)cc2)COC1 [Compound 317]	
